Key:
[1] = tested on: human liver microtissues (hepatocytes, Kupffer cells, endothelial and stellate cells) in NASH induction media; assay: Human 3D NASH model (InSphero Human 3D InSight), release of inflammatory markers; assay type: cell-based; conditions: supernatant, day 5
Procedure: The efficacy of Compound 35 was also determined in a NASH model (see InSphero Human 3D InSight™ Brunswick, ME) to investigate the effect of the molecule on the pathophysiological phenotype of NASH such as release of inflammatory markers. The microtissue model used is a co-culture of 4 different cell types of human liver cells (hepatocytes, Kupffer cells, endothelial and stellate cells) cultured for 10 days in a NASH induction media containing FFA, LPS and high levels of sugars. In the LEAN group the microtissues were cultured for 10 days in physiological-like medium. The reference compound, Selonsertib, a selective ASK1 inhibitor, was used as a down regulator of inflammatory markers. Cytokine and chemokine release in the supernatant were measured at day 5 using Magnetic Luminex® Assay (R&D Systems).

[2] = molecular target: T1, recombinant rat CD38 Protein (Rattus norvegicus, UniProt Q64244); assay: Fluorescence-based NAD+ hydrolase activity assay with rat recombinant CD38 protein (Assay 6); assay type: biochemical; conditions: read-out: Assay 6 Arithmetic mean IC50
T1 construct: purchased Sino Biological
T1 sequence (Q64244 1-303): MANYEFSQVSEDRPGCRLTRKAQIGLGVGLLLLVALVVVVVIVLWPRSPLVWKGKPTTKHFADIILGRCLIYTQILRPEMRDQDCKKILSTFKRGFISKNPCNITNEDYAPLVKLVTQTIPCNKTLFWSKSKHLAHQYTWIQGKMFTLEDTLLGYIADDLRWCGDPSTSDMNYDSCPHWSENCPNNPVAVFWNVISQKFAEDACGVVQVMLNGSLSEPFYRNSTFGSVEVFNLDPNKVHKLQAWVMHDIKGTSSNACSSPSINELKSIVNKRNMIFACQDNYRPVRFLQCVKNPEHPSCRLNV
Procedure: This protocol was modified from the following references: Muller et al. (1983); Schultz et al. (2018); Matalonga et al. (2017); and de Oliveira et al. (2018), supra.
NAD+ hydrolase activity of the rat recombinant CD38 protein treated with test compounds was measured using a fluorescence-based assay. Briefly, recombinant rat CD38 Protein (Sino Biological) was resuspended in 44 μl/well of Sucrose-Tris Buffer (Sucrose 0.25 M, Tris pH 7.4 40 mM) and plated in a 96 well black plate (CORNING) at a density of 2.5 ng/well.
Each test compound was received in a powder state and dissolved in DMSO as a 25 mM stock solution. Each test compound was serially diluted in order to generate a dose-response curve. […]
The reaction was started adding nicotinamide 1,N^6-etheno-adenine dinucleotide (Sigma Aldrich) to reach a final concentration of 80 µM. The samples were excited at 321-15 nm and the emission of fluorescence was measured at 410-20 nm at 37° C. every minute for 1 hr in a Clariostar Microplate® reader (BMG LABTECH). NAD+ hydrolase activity was calculated as the slope of the linear portion of the fluorescence-time curve using the MARS data analysis software (BMG LABTECH). The data were uploaded in the Collaborative Drug Design (CDD) Software and for each compound the IC50 was calculated by the software. […] For each plate, the z-factor was also calculated as a plate quality using the CDD software.

CD38 [3] = molecular target: T2, CD38 (Mus musculus, UniProt P56528); assay: LPS-induced inflammation in mice, gene expression analysis in spleen and liver; assay type: in vivo
T2 construct: aged mice (male C57BL6/J, 22 months old) were fasted for 4 hr; from tissue; host or cells: C57BL6/J mice (aged, DIO obese or LPS-challenged); liver, spleen, plasma
T2 sequence (P56528 1-304): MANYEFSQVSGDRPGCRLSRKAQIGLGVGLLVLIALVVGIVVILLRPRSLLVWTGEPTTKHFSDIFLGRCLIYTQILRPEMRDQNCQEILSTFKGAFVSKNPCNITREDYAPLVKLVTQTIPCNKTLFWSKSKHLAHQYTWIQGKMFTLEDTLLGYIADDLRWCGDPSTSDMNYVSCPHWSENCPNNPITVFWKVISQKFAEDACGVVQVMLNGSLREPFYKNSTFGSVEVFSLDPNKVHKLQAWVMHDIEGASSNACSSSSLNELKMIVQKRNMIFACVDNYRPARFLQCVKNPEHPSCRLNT

CD38 [4] = molecular target: T2, CD38; assay: LPS-induced inflammation in mice, cytokines quantification in plasma; assay type: in vivo
Procedure: The in vivo efficacy of Compound 39 against the human CD38 enzyme after LPS challenge was assessed. The effects of Compound 39 (10 mg/kg and 30 mg/kg) on inflammato cytokines, inflammation markers and NAD+ levels at 4 h and 8 h points after LPS-induced inflammation in 12 weeks old male C57BL/6J mice were evaluated.
Animals were euthanized by terminal cardiac blood puncture immediately after terminal CO2, 4 h and 8 h after LPS administration. At necropsy, the tissues (Liver, Plasma, Spleen, Kidney, Lungs, Heart, Visceral Adipose Tissue, Muscle-Gastrocnemius) were collected and quick frozen in liquid nitrogen. The blood was collected in a BD Microtainer® K2EDTA Additive Tube, centrifuge at 1000 g for 10 min at 4° C. and plasma was store at −80° C.).

[5] = 4 hour post LPS challenge, 10 mg/kg
[6] = 4 hour post LPS challenge, 30 mg/kg
[7] = 8 h post LPS challenge, 10 mg/kg and 30 mg/kg

`COc1cc(C(=O)Nc2ccnc(C(F)(F)F)c2)nc(-n2ccnc2)c1` [Compound 35, 6-(1H-imidazol-1-yl)-4-methoxy-N-(2-(trifluoromethyl)pyridin-4-yl)picolinamide] was tested, and the “release of NASH-induced inflammatory marker IL-8” value [1] was “effectiveness in downregulating”, the “release of NASH-induced inflammatory marker IP-10/CXCL-10” value [1] was “effectiveness in downregulating” and the “release of NASH-induced inflammatory marker MIP-1α/CCL3” value [1] was “effectiveness in downregulating”. The “release of NASH-induced inflammatory marker TNFα” value [1] was “effectiveness in downregulating”.

For `COCCOc1cc(C(=O)Nc2ccnc(C(F)(F)F)c2)nc(-n2ccnc2)n1` [Compound 39, 2-(1H-imidazol-1-yl)-6-(2-methoxyethoxy)-N-(2-(trifluoromethyl)pyridin-4-yl)pyrimidine-4-carboxamide], the IC50 [2] was 1 to 50 nM, the “CD38 expression in liver” value (CD38 [3]; liver, 10 mg/kg and 30 mg/kg, 8 hour post LPS challenge) was “statistically significant decrease” and the “IFNγ expression levels in liver” value (CD38 [3]; liver, after LPS challenge) was “statistically significant decrease”. The “IL-1β expression levels in liver” value (CD38 [3]; liver, after LPS challenge) was “statistically significant decrease”, the “IL-6 expression levels in liver” value (CD38 [3]; liver, after LPS challenge) was “statistically significant decrease” and the “IP-10 expression levels in liver” value (CD38 [3]; liver, after LPS challenge) was “statistically significant decrease”. The “MCP1 expression levels in liver” value (CD38 [3]; liver, after LPS challenge) was “statistically significant decrease”, the “MIP1α expression levels in liver” value (CD38 [3]; liver, after LPS challenge) was “statistically significant decrease” and the “MIP2 expression levels in liver” value (CD38 [3]; liver, after LPS challenge) was “statistically significant decrease”. The “RANTES expression levels in liver” value (CD38 [3]; liver, after LPS challenge) was “statistically significant decrease”, the “TNFα expression levels in liver” value (CD38 [3]; liver, after LPS challenge) was “statistically significant decrease” and the “CD38 expression in spleen” value (CD38 [3]; spleen, after LPS challenge) was “no significant changes”. The “IFNγ expression levels in spleen” value (CD38 [3]; spleen, after LPS challenge) was “statistically significant decrease”, the “IL-1β expression levels in spleen” value (CD38 [3]; spleen, after LPS challenge) was “statistically significant decrease” and the “IL-6 expression levels in spleen” value (CD38 [3]; spleen, after LPS challenge) was “statistically significant decrease”. For the same molecule, the “IP-10 expression levels in spleen” value (CD38 [3]; spleen, after LPS challenge) was “statistically significant decrease”, the “MCP1 expression levels in spleen” value (CD38 [3]; spleen, after LPS challenge) was “statistically significant decrease” and the “MIP1α expression levels in spleen” value (CD38 [3]; spleen, after LPS challenge) was “statistically significant decrease”. For the same molecule, the “MIP2 expression levels in spleen” value (CD38 [3]; spleen, after LPS challenge) was “statistically significant decrease”, the “RANTES expression levels in spleen” value (CD38 [3]; spleen, after LPS challenge) was “statistically significant decrease” and the “TNFα expression levels in spleen” value (CD38 [3]; spleen, after LPS challenge) was “statistically significant decrease”. For the same molecule, the “decrease of plasma IL-6” value (CD38 [4]; [5]) was 43%, the “decrease of plasma TNFα” value (CD38 [4]; [5]) was 22% and the “plasma IP-10” value (CD38 [4]; 4 hour post LPS challenge, 10 mg/kg and 30 mg/kg) was “statistically significant decrease”. For the same molecule, the “decrease of plasma IL-6” value (CD38 [4]; [6]) was 75%, the “decrease of plasma TNFα” value (CD38 [4]; [6]) was 58% and the “plasma IL-6” value (CD38 [4]; [7]) was “statistically significant decrease”. The “plasma IP-10” value (CD38 [4]; [7]) was “statistically significant decrease” and the “plasma TNFα” value (CD38 [4]; [7]) was “statistically significant decrease”.

From patent publication US12509451B2, “Heteroaryl amide inhibitors of CD38” (NAPA THERAPEUTICS LTD., priority 2020, dated 2025)
